Entries after “also recorded” stand apart in the source; their conditions may differ. Where two headings read alike, the source gives them in different places.
Key:
Type in all cases: cell-based
[1] = system: NADPH oxidase in HL-60 cells; assay: Inhibition of NADPH oxidase activation / O2- generation in HL-60 cells (stimulus not singled out)
Procedure: HL-60 cells were maintained in stationary culture in RPMI 1640 medium (Gibco, Grand Island, NY) containing 10% fetal bovine serum at 37° C in an atmosphere of 95 air and 5% CO2. The cells (about 8×10^5 /ml) were differentiated into neutrophil-like cells by treatment with 1.3% DMSO for six days (Harris, et al., J. Leukocyte Biol. 37: 407-422 (1985)). The cells were treated with the indicated levels of compactin or lovastatin by addition of a 1,000-fold concentrated stock solution to the appropriate concentration on day 4 of differentiation. […] In studies of the protective effect of mevalonic acid, the compound was added as the mevalonolactone (Sigma Chemical Co., St. Louis, MO) at a concentration of 1 mM to the cell culture on days 4 to 6. Similarly, cholesterol was added in the form of LDL prepared according to the method of Curtiss and Edgington (Curtiss, et al., J. Biol. Chem. 257: 15213-15221 (1991)) at a final concentration of 50 μg/ml; ubiquinone (Sigma Chemical Co., St. Louis, MO) was added as Coenzyme Q-10 at a final concentration of 0.5 mM; and dolichol (Sigma Chemical Co., St. Louis, MO) was added as a dispersion in phosphatidylcholine at a final concentration of 0.5 mM (Cutts, et al., J. Cell Physiol. 139: 550-555 (1989)). O2 --formation by HL-60 cells was assessed by the SOD-sensitive reduction of cytochrome c. Cells were suspended at 1×10^7 /ml in Krebs-Ringer Hepes buffer with 5.5 mM glucose (KRHG) and 50-100μl of cells were added to a cuvette containing 100 μM cytochrome c (type III, Sigma Chemical Co., St. Louis, MO), ±300 μg/ml SOD (Sigma Chemical Co., St. Louis, MO) in 700-750 μl KRHG. Cytochalasin b (Sigma Chemical Co., St. Louis, MO) was added to a final concentration of 5 μg/ml, and the cells were incubated at 37° C. for five minutes while a stable baseline at a wavelength of 550 nm was obtained. O2 --formation was initiated by the addition of 1 μM N-formylmethionylleucylphenylalanine (FMLP; Sigma Chemical Co., St. Louis, MO) or 1μg/ml phorbol myristate acetate (PMA; Sigma Chemical Co., St. Louis, MO). Cytochrome c reduction at 550nm was continuously monitored and maximal rate and extent of the reaction calculated.

[2] = system: HL-60 cells (NADPH oxidase / respiratory burst); assay: O2- formation by DMSO-differentiated HL-60 cells, PMA-stimulated; settings: various concentrations
Procedure: HL-60 cells were maintained in stationary culture in RPMI 1640 medium (Gibco, Grand Island, NY) containing 10% fetal bovine serum at 37° C in an atmosphere of 95 air and 5% CO2. The cells (about 8×10^5 /ml) were differentiated into neutrophil-like cells by treatment with 1.3% DMSO for six days (Harris, et al., J. Leukocyte Biol. 37: 407-422 (1985)). The cells were treated with the indicated levels of compactin or lovastatin by addition of a 1,000-fold concentrated stock solution to the appropriate concentration on day 4 of differentiation. […] In studies of the protective effect of mevalonic acid, the compound was added as the mevalonolactone (Sigma Chemical Co., St. Louis, MO) at a concentration of 1 mM to the cell culture on days 4 to 6. […]
O2 --formation by HL-60 cells was assessed by the SOD-sensitive reduction of cytochrome c. […] Cytochrome c reduction at 550nm was continuously monitored and maximal rate and extent of the reaction calculated.

[3] = system: HL-60 cells (NADPH oxidase / respiratory burst); assay: O2- formation by DMSO-differentiated HL-60 cells, FMLP-stimulated (SOD-sensitive cytochrome c reduction); settings: for activity at 0.4 µM / activity at 2 µM / activity at 4 µM / activity at 10 µM: Homo sapiens, HL-60; for activity at 0.4 µM: 0.4 μM compactin; for activity at 2 µM: 2 μM compactin; for activity at 4 µM: 4 μM compactin; for activity at 10 µM: 10 μM compactin
Procedure: HL-60 cells were maintained in stationary culture in RPMI 1640 medium (Gibco, Grand Island, NY) containing 10% fetal bovine serum at 37° C in an atmosphere of 95 air and 5% CO2. The cells (about 8×10^5 /ml) were differentiated into neutrophil-like cells by treatment with 1.3% DMSO for six days (Harris, et al., J. Leukocyte Biol. 37: 407-422 (1985)). The cells were treated with the indicated levels of compactin or lovastatin by addition of a 1,000-fold concentrated stock solution to the appropriate concentration on day 4 of differentiation. […] In studies of the protective effect of mevalonic acid, the compound was added as the mevalonolactone (Sigma Chemical Co., St. Louis, MO) at a concentration of 1 mM to the cell culture on days 4 to 6. Similarly, cholesterol was added in the form of LDL prepared according to the method of Curtiss and Edgington (Curtiss, et al., J. Biol. Chem. 257: 15213-15221 (1991)) at a final concentration of 50 μg/ml; ubiquinone (Sigma Chemical Co., St. Louis, MO) was added as Coenzyme Q-10 at a final concentration of 0.5 mM; and dolichol (Sigma Chemical Co., St. Louis, MO) was added as a dispersion in phosphatidylcholine at a final concentration of 0.5 mM (Cutts, et al., J. Cell Physiol. 139: 550-555 (1989)).
O2 --formation by HL-60 cells was assessed by the SOD-sensitive reduction of cytochrome c. Cells were suspended at 1×10^7 /ml in Krebs-Ringer Hepes buffer with 5.5 mM glucose (KRHG) and 50-100μl of cells were added to a cuvette containing 100 μM cytochrome c (type III, Sigma Chemical Co., St. Louis, MO), ±300 μg/ml SOD (Sigma Chemical Co., St. Louis, MO) in 700-750 μl KRHG. Cytochalasin b (Sigma Chemical Co., St. Louis, MO) was added to a final concentration of 5 μg/ml, and the cells were incubated at 37° C. for five minutes while a stable baseline at a wavelength of 550 nm was obtained. O2 --formation was initiated by the addition of 1 μM N-formylmethionylleucylphenylalanine (FMLP; Sigma Chemical Co., St. Louis, MO) or 1μg/ml phorbol myristate acetate (PMA; Sigma Chemical Co., St. Louis, MO). Cytochrome c reduction at 550nm was continuously monitored and maximal rate and extent of the reaction calculated.

[4] = system: N-formyl peptide receptor; assay: HL-60 differentiation: N-formyl peptide receptor expression (flow cytometry); settings: compactin-treated cells
Procedure: HL-60 cells were maintained in stationary culture in RPMI 1640 medium (Gibco, Grand Island, NY) containing 10% fetal bovine serum at 37° C in an atmosphere of 95 air and 5% CO2. The cells (about 8×10^5 /ml) were differentiated into neutrophil-like cells by treatment with 1.3% DMSO for six days (Harris, et al., J. Leukocyte Biol. 37: 407-422 (1985)). The cells were treated with the indicated levels of compactin or lovastatin by addition of a 1,000-fold concentrated stock solution to the appropriate concentration on day 4 of differentiation. […]
Cell viability was determined by uptake of propidium iodide (537-059; Calbiochem-Behring Corp., La Jolla, CA), detected from the emission fluorescence at 625/35 nm using a DM560 dichronic mirror (Krishan, J. Cell. Biol. 66: 188-192 (1975)). Expression of N-formyl peptide receptor was determined using fluorescein-labeled N-CHONle-Leu-Phe-Nle-Tyr-Lys (Molecular Probes, Inc., Eugene, OR) essentially by the method of Sklar and Finney (Sklar and Finney, Cytometry 3: 161-165 (1982)). Specificity of ligand binding was determined in the presence of 4 mM unlabeled T-boc peptide. […]
HL-60 differentiation was assessed using two distinct markers: appearance of N-formyl peptide receptors and appearance of the CD14 antigen.

[5] = read-out: FMLP-stimulated O2- formation, Extent
[6] = read-out: FMLP-stimulated O2- formation, Rate

CC[C@H](C)C(=O)O[C@H]1CCC=C2C=C[C@H](C)[C@H](CC[C@@H]3C[C@@H](O)CC(=O)O3)[C@H]21 [compactin]
inhibition of NADPH oxidase activation, effective concentrations [1]: micromolar concentrations
inhibition at 10 µM ([1]; Homo sapiens, HL-60, 10 μM compactin, response to FMLP or PMA, read-out: inhibition of O2- formation): > 85%
IC50 ([1]; Homo sapiens, DMSO-differentiated HL-60, response to FMLP or PMA, read-out: half-maximal inhibition of O2- formation): 400 to 2000 nM
ability of HL-60 cells to generate O2- ([1]; response to receptor stimuli and downstream activators): markedly inhibited
inhibition of O2- formation in response to PMA [2]: loss in the ability of PMA to stimulate O2 --formation; also recorded: dose-dependent inhibition
activity at 0.4 µM [3, 5]: 71 ± 10%
activity at 0.4 µM [3, 6]: 77 ± 10%
activity at 2 µM [3, 5]: 36 ± 11%
activity at 2 µM [3, 6]: 47 ± 11%
activity at 4 µM [3, 5]: 22 ± 1%
activity at 4 µM [3, 6]: 39 ± 4.1%
activity at 10 µM [3, 5]: 12 ± 2.1%
activity at 10 µM [3, 6]: 15 ± 2.6%
inhibition of O2- formation in response to FMLP ([3]; various concentrations): dose-dependent inhibition
N-formyl peptide receptor expression [4]: normal

From patent US5244916A, “Inhibition of respiratory burst using posttranslational modification inhibitors” (The Scripps Research Institute, priority 1992, dated 1993)
